Results as given in patent publication US12331041B2, “GLP-1 receptor agonists and uses thereof” (Pfizer Inc., priority 2018, dated 2025).
Counter-ions that a name gives are not always drawn.

Experiments:
human GLP-1R [1] = target: T1, human GLP-1R (Homo sapiens, UniProt P43220, G168S); test: CHO GLP-1R Clone H6 - Assay 1 (HTRF cAMP agonist assay); assay type: cell-based; details: for EC50: CHO Clone H6, high GLP-1R density, cAMP, geometric mean; for Emax / Assay 1 Emax (%): CHO Clone H6, relative to saturating full agonist GLP-1 7-36 (1 μM), arithmetic mean
T1 construct: expressed in transfected cells
T1 sequence (P43220 24-463 G168S): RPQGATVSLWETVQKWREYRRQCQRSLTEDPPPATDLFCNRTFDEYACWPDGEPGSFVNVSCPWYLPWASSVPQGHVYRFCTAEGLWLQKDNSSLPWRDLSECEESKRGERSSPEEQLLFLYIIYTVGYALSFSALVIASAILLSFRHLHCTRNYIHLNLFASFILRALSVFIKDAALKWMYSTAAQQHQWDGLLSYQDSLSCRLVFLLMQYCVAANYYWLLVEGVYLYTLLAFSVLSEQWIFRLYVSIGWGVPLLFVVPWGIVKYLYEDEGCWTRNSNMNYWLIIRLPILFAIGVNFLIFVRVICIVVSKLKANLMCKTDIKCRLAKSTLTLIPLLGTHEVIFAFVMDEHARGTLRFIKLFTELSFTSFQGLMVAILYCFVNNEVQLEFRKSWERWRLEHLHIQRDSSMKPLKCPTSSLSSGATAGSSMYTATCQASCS
Protocol: GLP-1R-mediated agonist activity was determined with a cell-based functional assay utilizing an HTRF (Homogeneous Time-Resolved Fluorescence) cAMP detection kit (cAMP HI Range Assay Kit; CisBio cat #62AM6PEJ) that measures cAMP levels in the cell. The method is a competitive immunoassay between native cAMP produced by the cells and exogenous cAMP labeled with the dye d2, The tracer binding is visualized by a mAb anti-cAMP labeled with Cryptate. The specific signal (i.e. energy transfer) is inversely proportional to the concentration of cAMP in either standard or experimental sample.
The human GLP-1R coding sequence (NCBI Reference Sequence NP_002053.3, including naturally-occurring variant Gly168Ser) was subcloned into pcDNA3 (Invitrogen) and a cell line stably expressing the receptor was isolated (designated Clone H6).
(§1) A 1 mL sample of the cell suspension in growth media was counted on a Becton Dickinson ViCell to determine cell viability and cell count per mL. The remaining cell suspension was then adjusted with growth media to deliver 2000 viable cells per well using a Matrix Combi Multidrop reagent dispenser, and the cells were dispensed into a white 384 well tissue culture treated assay plate (Corning 3570). The assay plate was then incubated for 48 hours at 37° C. in a humidified environment in 5% carbon dioxide.
Varying concentrations of each compound to be tested (in DMSO) were diluted in assay buffer (HBSS with Calcium/Magnesium (Lonza/BioWhittaker cat #10-527F)/0.1% BSA (Sigma Aldrich cat #A7409-1L)/20 mM HEPES (Lonza/BioWhittaker cat #17-737E) containing 100 μM 3-isobutyl-1-methylxanthin (IBMX; Sigma cat #15879). The final DMSO concentration is 1%.
After 48 hours, the growth media was removed from the assay plate wells, and the cells were treated with 20 μL of the serially diluted compound in assay buffer for 30 minutes at 37° C. in a humidified environment in 5% carbon dioxide. Following the 30 minute incubation, 10 μL of labeled d2 cAMP and 10 μL of anti-cAMP antibody (both diluted 1:20 in cell lysis buffer; as described in the manufacturer's assay protocol) were added to each well of the assay plate. The plates were then incubated at room temperature and after 60 minutes, changes in the HTRF signal were read with an Envision 2104 multi-label plate reader using excitation of 330 nm and emissions of 615 and 665 nm. Raw data were converted to nM cAMP by interpolation from a cAMP standard curve (as described in the manufacturer's assay protocol) and the percent effect was determined relative to a saturating concentration of the full agonist GLP-17-36 (1 μM) included on each plate. EC50 determinations were made from agonist dose-response curves analyzed with a curve fitting program using a 4-parameter logistic dose response equation.

human GLP-1R [2] = target: T2, human GLP-1R (Homo sapiens, UniProt P43220, L260F); test: CHO GLP-1R Clone C6 - Assay 2 (HTRF cAMP agonist assay); assay type: cell-based; details: for EC50: CHO clone C6, low GLP-1R density, cAMP, geometric mean; for Emax: CHO clone C6, relative to saturating full agonist GLP-1 (1 μM), arithmetic mean
T2 construct: expressed in transfected cells; host or cells: CHO Flp-In T-REx, clonal line C6 (pcDNA5-FRT-TO)
T2 sequence (P43220 24-463 L260F): as the sequence (P43220 24-463 G168S) above, with S145G, L237F counted along it
Protocol: GLP-1R-mediated agonist activity was determined with a cell-based functional assay utilizing an HTRF (Homogeneous Time-Resolved Fluorescence) cAMP detection kit (cAMP HI Range Assay Kit; Cis Bio cat #62AM6PEJ) that measures cAMP levels in the cell. The method is a competitive immunoassay between native cAMP produced by the cells and exogenous cAMP labeled with the dye d2. The tracer binding is visualized by a mAb anti-cAMP labeled with Cryptate. The specific signal (i.e. energy transfer) is inversely proportional to the concentration of cAMP in either a standard or an experimental sample.
The human GLP-1R coding sequence (NCBI Reference Sequence NP_002053.3, including naturally-occurring variant Leu260Phe) was subcloned into pcDNA5-FRT-TO and a clonal CHO cell line stably expressing a low receptor density was isolated using the Flp-In™ T-Rex™ System, as described by the manufacturer (ThermoFisher).
as §1, with “deliver 1600” for “deliver 2000”, “48 h” for “48 hours”, “environment (95% O2,” for “environment in”, “5% CO2)” for “5% carbon dioxide.”
Varying concentrations of each compound to be tested (in DMSO) were diluted in assay buffer [HBSS with Calcium/Magnesium (Lonza/BioWhittaker cat #10-527F)/0.1% BSA (Sigma Aldrich cat #A7409-1L)/20 mM HEPES (Lonza/BioWhittaker cat #17-737E)] containing 100 μM 3-isobutyl-1-methylxanthin (IBMX; Sigma cat #15879). The final DMSO concentration in the compound/assay buffer mixture is 1%.
After 48 h, the growth media was removed from the assay plate wells, and the cells were treated with 20 μL of the serially diluted compound in assay buffer for 30 min at 37° C. in a humidified environment (95% O2, 5% CO2). Following the 30 min incubation, 10 μL of labeled d2 cAMP and 10 μL of anti-cAMP antibody (both diluted 1:20 in cell lysis buffer; as described in the manufacturer's assay protocol) were added to each well of the assay plate. The plates were then incubated at room temperature and after 60 minutes, changes in the HTRF signal were read with an Envision 2104 multi-label plate reader using excitation of 330 nm and emissions of 615 and 665 nm. Raw data were converted to nM cAMP by interpolation from a cAMP standard curve (as described in the manufacturer's assay protocol) and the percent effect was determined relative to a saturating concentration of the full agonist GLP-1 (1 μM) included on each plate. EC50 determinations were made from agonist dose response curves analyzed with a curve fitting program using a 4-parameter logistic dose response equation.

Work on COCCn1c(C2CC23CCN(c2nc(OCc4ccc(Cl)cc4F)ncc2F)CC3)nc2cnc(C(=O)O)cc21 (single isomer, unassigned) [Example 31, 2-(6-{2-[(4-chloro-2-fluorobenzyl)oxy]-5-fluoropyrimidin-4-yl}-6-azaspiro[2.5]oct-1-yl)-1-(2-methoxyethyl)-1H-imidazo[4,5-c]pyridine-6-carboxylic acid, trifluoroacetate salt, single enantiomer; from P7] yielded an EC50 (human GLP-1R [1]) of 300 nM and an Emax (human GLP-1R [1]) of 65%.

For COCCn1c(C2CC23CCN(c2nc(OCc4ccc(Cl)cc4F)ncc2F)CC3)nc2cnc(C(=O)O)cc21 (single isomer, unassigned) [Example 32, 2-(6-{2-[(4-chloro-2-fluorobenzyl)oxy]-5-fluoropyrimidin-4-yl}-6-azaspiro[2.5]oct-1-yl)-1-(2-methoxyethyl)-1H-imidazo[4,5-c]pyridine-6-carboxylic acid, trifluoroacetate salt, single enantiomer; from C23], the EC50 (human GLP-1R [1]) was greater than 20000 nM.

With O=C(O)c1ccc2nc(C3CC34CCN(c3nc(OCc5ccc(Cl)cc5F)ncc3F)CC4)n(CCn3cncn3)c2c1 (single isomer, unassigned) [Example 42, 2-(6-{2-[(4-chloro-2-fluorobenzyl)oxy]-5-fluoropyrimidin-4-yl}-6-azaspiro[2.5]oct-1-yl)-1-[2-(1H-1,2,4-triazol-1-yl)ethyl]-1H-benzimidazole-6-carboxylic acid, trifluoroacetate salt, from C23] the EC50 (human GLP-1R [1]) was 3400 nM and the “Assay 1 Emax (%)” value (human GLP-1R [1]) was 89%.

For COCCn1c(C2CC23CCN(c2cccc(OCc4ccc(Cl)cc4F)n2)CC3)nc2ncc(C(=O)O)cc21 (single isomer, unassigned) [Example 48, 2-(6-{6-[(4-chloro-2-fluorobenzyl)oxy]pyridin-2-yl}-6-azaspiro[2.5]oct-1-yl)-1-(2-methoxyethyl)-1H-imidazo[4,5-b]pyridine-6-carboxylic acid, ENT-1], the EC50 (human GLP-1R [1]) was 2600 nM and the Emax (human GLP-1R [1]) was 56%.

Work on COCCn1c(C2CC23CCN(c2ccnc(OCc4ccc(Cl)cc4F)n2)CC3)nc2ccc(C(=O)O)cc21 (single isomer, unassigned; ent-1) [Example 46, Ammonium 2-(6-{2-[(4-chloro-2-fluorobenzyl)oxy]pyrimidin-4-yl}-6-azaspiro[2.5]oct-1-yl)-1-(2-methoxyethyl)-1H-benzimidazole-6-carboxylate, ENT-1] yielded an EC50 (human GLP-1R [1]) greater than 9700 nM and an Emax (human GLP-1R [1]) of 100%.

For N#Cc1ccc(COc2nc(N3CCC4(CC3)CC4c3nc4ccc(C(=O)O)cc4n3CC3CCO3)c(F)cc2F)c(F)c1 (single isomer, unassigned; ent-2) [Example 58], the EC50 (human GLP-1R [1]) was 43 nM and the “Assay 1 Emax (%)” value (human GLP-1R [1]) was 74%.

With N#Cc1ccc(COc2ncccc2C2CCN(Cc3nc4ccc(C(=O)O)cc4n3C[C@@H]3CCO3)CC2)c(F)c1 [Example 5, 2-[(4-{2-[(4-cyano-2-fluorobenzyl)oxy]pyridin-3-yl}piperidin-1-yl)methyl]-1-[(2S)-oxetan-2-ylmethyl]-1H-benzimidazole-6-carboxylic acid] the EC50 (human GLP-1R [2]) was 42 nM and the Emax (human GLP-1R [2]) was 95%.

Work on Cn1nncc1Cn1c(CN2CCC(c3cccnc3OCc3ccc(Cl)cc3F)CC2)nc2ccc(C(=O)O)cc21 [Example 10, 2-[(4-{2-[(4-chloro-2-fluorobenzyl)oxy]pyridin-3-yl}piperidin-1-yl)methyl]-1-[(1-methyl-1H-1,2,3-triazol-5-yl)methyl]-1H-benzimidazole-6-carboxylic acid, trifluoroacetate salt] yielded an EC50 (human GLP-1R [2]) of 220 nM and an Emax (human GLP-1R [2]) of 100%.

Work on N#Cc1ccc(COc2ncccc2C2CCN(Cc3nc4ccc(C(=O)O)nc4n3C[C@@H]3CCO3)CC2)c(F)c1 [Example 18, ammonium 2-[(4-{2-[(4-cyano-2-fluorobenzyl)oxy]pyridin-3-yl}piperidin-1-yl)methyl]-3-[(2S)-oxetan-2-ylmethyl]-3H-imidazo[4,5-b]pyridine-5-carboxylate] yielded an EC50 (human GLP-1R [2]) of 59 nM and an Emax (human GLP-1R [2]) of 100%.

With N#Cc1ccc(COc2nccnc2C2CCN(Cc3nc4ccc(C(=O)O)cc4n3C[C@@H]3CCO3)CC2)c(F)c1 [Example 28, ammonium 2-[(4-{3-[(4-cyano-2-fluorobenzyl)oxy]pyrazin-2-yl}piperidin-1-yl)methyl]-1-[(2S)-oxetan-2-ylmethyl]-1H-benzimidazole-6-carboxylate] the EC50 (human GLP-1R [2]) was 150 nM and the Emax (human GLP-1R [2]) was 98%.

For Cn1c(CN2CCC(c3nccnc3OCc3ccc(Cl)cc3F)CC2)nc2cnc(C(=O)O)cc21 [Example 29, 2-[(4-{3-[(4-Chloro-2-fluorobenzyl)oxy]pyrazin-2-yl}piperidin-1-yl)methyl]-1-methyl-1H-imidazo[4,5-c]pyridine-6-carboxylic acid, trifluoroacetate salt], the EC50 (human GLP-1R [1]) was 1800 nM and the Emax (human GLP-1R [1]) was 65%.

In the case of C[C@H]1CN(c2nccnc2OCc2ccc(Cl)cc2F)CCN1Cc1nc2ccc(C(=O)O)nc2n1C [Example 34, 2-{[(2S)-4-{3-[(4-Chloro-2-fluorobenzyl)oxy]pyrazin-2-yl}-2-methylpiperazin-1-yl]methyl}-3-methyl-3H-imidazo[4,5-b]pyridine-5-carboxylic acid, trifluoroacetate salt], the EC50 (human GLP-1R [1]) is reported as 1900 nM and the Emax (human GLP-1R [1]) is reported as 92%.

Work on Cn1cnc(Cn2c(CN3CCC(c4ccnc(OCc5ccc(Cl)cc5F)n4)CC3)nc3ccc(C(=O)O)cc32)c1 [Example 66, 2-[(4-{2-[(4-chloro-2-fluorobenzyl)oxy]pyrimidin-4-yl}piperidin-1-yl)methyl]-1-[(1-methyl-1H-imidazol-4-yl)methyl]-1H-benzimidazole-6-carboxylic acid] yielded an EC50 (human GLP-1R [1]) of 170 nM and an Emax (human GLP-1R [1]) of 110%.

C[C@H]1CN(c2nc(OCc3ccc(C#N)cc3)ncc2F)CCN1Cc1nc2ccc(C(=O)O)cc2n1CCC(F)(F)F [Example 70, ammonium 2-{[(2S)-4-{2-[(4-cyanobenzyl)oxy]-5-fluoropyrimidin-4-yl}-2-methylpiperazin-1-yl]methyl}-1-(3,3,3-trifluoropropyl)-1H-benzimidazole-6-carboxylate] gave an EC50 (human GLP-1R [1]) of 700 nM and an Emax (human GLP-1R [1]) of 79%.
